We go through two substances from patent US20230203485A1, “METHODS FOR MODULATING MHC-I EXPRESSION AND IMMUNOTHERAPY USES THEREOF” (Dana-Farber Cancer Institute, Inc., priority 2020, published 2023).

Common to all, as to assay type: cell-based, human
Test [1] has as its system class I pathway and IFN-γ pathway proteins (STAT1/p-STAT1) in MCC lines. The test is described as follows: Whole proteome analysis (TMT LC-MS/MS) of MCC lines with and without IFNγ. The settings on record: MCC lines non-IFN-responsive by flow cytometry. As for the experimental part: FIG. 2D is a proteomics heatmap depicting the relative expression of key IFN-γ pathway components in 4 of the MCC lines, both at baseline and after IFN-γ treatment.
FIG. 2E comprises graphs summarizing a targeted analysis of normalized STAT1 peptide counts (left) and STAT-Y701y phosphosite counts (right) between untreated and IFN-γ-treated cell lines.
Protein expression of MCC cell lines was assessed as described previously (Mertins et al. (2018) Nature Protocols 13 (7): 1632-61. Briefly, cell pellets of MCC cell lines with and without IFNγ treatment were lysed in 8M Urea and digested to peptides using LysC and Trypsin (Promega). 400 μg peptides were labeled with TMT10 reagents (Thermo Fisher, 126-MCC290, 127N-MCC350_IFN, 127C MCC275_IFN, 128N MCC275, 128C MCC350, 129N_MCC301_IFN, 129C-MCC277, 130N-MCC290_IFNy, 130C MCC277 IFN, 131 MCC301) and then pooled for subsequent fractionation and analysis. Pooled peptides were separated into 24 fractions using offline high pH reversed phase fractionation. 1 μg per fraction was loaded onto an analytical column (20-30 cm, 1.9 μm C18 Reprosil beads (Dr. Maisch HPLC GmbH), packed in-house PicoFrit 75 μM inner diameter, 10 μM emitter (New Objective)). […] During data dependent acquisition, peptides were analyzed on a Fusion Lumos (Thermo Scientific). […]

In another test the test system is surface HLA-I. The test is described as follows: Interferon treatment of MCC lines, surface HLA-I by flow cytometry. The procedure: (§1) Cells were dissociated with Versene and incubated with 5 μL Human TruStain FcX (Fc Receptor Blocking Solution; Biolegend #422302) per million cells in 100 μL at room temperature for 10 min. Fluorophore-conjugated antibodies or respective isotype controls were added and incubated for another 30 min at 4° C. Cells were then washed once with PBS and resuspended in PBS or 4% paraformaldehyde and analyzed on an LSR Fortessa cytometer. For HLA-I and HLA-II detection, the following antibodies were used: HLA-ABC (W6/32 clone) conjugated to PE (BioLegend #311406), APC (BioLegend #311410), or AF647 (Santa Cruz Biotechnology #sc32235 AF647), and HLA-DR-FITC (BioLegend #307604).
Background: Flow cytometry measures light scatter and fluorescence of single cells or particles in a stream.

In the next test the test system is HLA-DR. Briefly: IFN-γ treatment, HLA-DR by flow cytometry. The settings on record: MCC-301 cell line. As for the experimental part:
as §1

In the case of “IFN-y: type II interferon, recombinant human, used to treat MCC cells”, the STAT1/p-STAT1 protein expression entry in test [1] is reported as “lack of IFN-induced STAT1/p-STAT1 protein expression”.

Consider “IFN-γ: interferon gamma used to stimulate MCC cell lines”, for which, in the test on surface HLA-I (8 lines), the “fold increase in MFI of HLA-I after IFN-γ exposure” value is at least 2.5 fold, the “median fold increase in MFI of HLA-I after IFN-γ exposure” value was found to be 5.7 fold and the “range of fold increase in MFI of HLA-I after IFN-γ exposure” value was 2.5-12.4 fold. For the same substance, in the test with surface HLA-I (three lines (MCC-336, -350, -358)), the “fold increase in MFI of HLA-I after IFN-γ exposure” value is at most 1.15 fold. For the same substance, in the test on HLA-DR, the HLA-DR expression entry is “upregulated”.
